Measurements published in ChEMBL document CHEMBL2406969, “Gombamide A, a cyclic thiopeptide from the sponge Clathria gombawuiensis” (2013).
Numbered stars: 1 amine (or outer) side, 2 acyl side, 3 side chain; on linkers, the order of the positions; unused ones are H or OH. Bridge positions count the residues as written; N and C are the ends. Square brackets hold non-standard residues; d marks the D form. Peptide text beside a SMILES is read from it. * marks the point of attachment. X1 = O=C([C@@H]1CCCN1C[C@@H]1CCCN1[*:1])[*:2]; pGlu = O=C1CC[C@@H](C(=O)O)N1; X2 = Oc1ccc(/C=C/N*)cc1

Columns and labels:
[1] = test system: K562; assay: Cytotoxicity against human K562 cells; format: functional; conditions: read-out: LC50 (the source's name)
[2] = test system: A549; assay: Cytotoxicity against human A549 cells; format: functional; conditions: read-out: LC50 (the source's name)
[3] = biological target: Sodium/potassium-transporting ATPase (Homo sapiens) (UniProt P05023+P14415+P05026+P50993+P54709+P13637+Q13733+P54710)
Description: Inhibition of Na+/K+ ATPase (unknown origin)

Compound | CC50 [1] [µM] | CC50 [2] [µM] | LC50 [3] [µM]
COc1cccc2c1C(=O)c1c(O)c3c(c(O)c1C2=O)C[C@@](O)(C(=O)CO)C[C@@H]3O[C@H]1C[C@H](N)[C@H](O)[C@H](C)O1 [DOXORUBICIN] | 0.7 | 0.5 | 
O=C1CC[C@@H](C(=O)N[C@H]2CSSC[C@@H](C(=O)N/C=C/c3ccc(O)cc3)NC(=O)[C@H](Cc3ccccc3)NC(=O)[C@@H]3CCCN3C[C@@H]3CCCN3C2=O)N1 ([pGlu]C[X1]FC-X2; disulfide 2-5) | 6.9 | 7.1 | 17.8
